Experimental findings from patent US20210330611A1, “THERAPY FOR NEUROLOGICAL DISEASES/DISORDERS” (priority 2020, published 2021) are described below.

The subject of data set [1] is fibrin- and LPS-induced microglia activation. Description: cells. It is filed as cell-based, rat. Conditions: classification by fibrin and LPS inhibition, HTS at 10 μM.
Data set [2] concerns LPS-induced microglia activation. Description: Image-based assay of LPS-induced microglia activation (HTS and dose response). It is filed as cell-based, rat. Conditions: primary microglia HTS, LPS stimulation, compounds at 10 μM; for inhibition at 10 µM: Rattus norvegicus, Microglia, read-out: LPS % inhibition.
Data set [3] concerns primary rat microglia.
Data set [4] relates to fibrin-induced microglia activation. In words: Image-based assay of fibrin-induced microglia activation (HTS and dose response). It is filed as cell-based, rat. Conditions: primary microglia HTS, fibrin stimulation, compounds at 10 μM; for inhibition at 10 µM: Rattus norvegicus, Microglia, read-out: Fibrin % inhibition.
Data set [5] concerns primary rat microglia. In words: Cell toxicity (dead cells, size <150 μm2) in coated fibrin (cFib) assay.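 Also: share of dead cells sized under 150 µm2 at 10 µM in fibrin-stimulated microglia HTS.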 Conditions: primary microglia HTS, fibrin assay, dead cells (size <150 μm2), compounds at 10 μM.

Each structure is given as a SMILES string. Several values for one entry are separate records, joined by “and”; a condition that tells them apart may be missing. Identical values can stand only once. Like-named read-outs stand apart in the source and are kept apart here.

The term inhibition denotes the change of the read-out against control, counted positive when it falls. For `Cc1ccccc1N1CCN(CCc2nnc3n2CCCC3)CC1` [Dapiprazole], in data set [1], the “Quadrant (FIG. 5b)” value is reported as “Q4”. The inhibition at 10 µM in data set [2] was 14%; in data set [4], -9%. Also, the “LPS % cell toxicity” value with primary rat microglia [3] (rat) is listed as 0%. Further, the “Fibrin % cell toxicity” value with primary rat microglia [5] came to 1%.

Turning to `CCCCCCCCCC(=O)N[C@@H](Cc1c[nH]c2ccccc12)C(=O)N[C@@H](CC(N)=O)C(=O)N[C@@H](CC(=O)O)C(=O)N[C@@H]1C(=O)NCC(=O)N[C@@H](CCCN)C(=O)N[C@@H](CC(=O)O)C(=O)N[C@H](C)C(=O)N[C@@H](CC(=O)O)C(=O)NCC(=O)N[C@H](CO)C(=O)N[C@@H]([C@H](C)CC(=O)O)C(=O)N[C@@H](CC(=O)c2ccccc2N)C(=O)O[C@@H]1C` [Daptomycin (5 Millimolar/dmso)], in data set [1], the “Quadrant (FIG. 5b)” value is recorded as “Q4”. Further, the LPS % inhibition in data set [2] amounted to 17%. Besides, in the data set with primary rat microglia [3], the “LPS % cell toxicity” value amounted to 0%. Also, the Fibrin % inhibition in data set [4] is listed as −6%. The “Fibrin % cell toxicity” value in the data set with primary rat microglia [5] worked out at 1%.

Consider `N=C(N)N1CCc2ccccc2C1` [Debrisoquin], for which the “Quadrant (FIG. 5b)” value in data set [1] is on record as “Q4”. The inhibition at 10 µM came to 17% in data set [2] and 8% in data set [4]. Besides, the “LPS % cell toxicity” value with primary rat microglia [3] (rat) worked out at 0%. Moreover, the “Fibrin % cell toxicity” value in the data set on primary rat microglia [5] is listed as 1%.

For the compound `C[N+](C)(C)CCCCCCCCCC[N+](C)(C)C` [Decamethonium], in data set [1], the “Quadrant (FIG. 5b)” value was “Q4”. Further, the results for the inhibition at 10 µM in data set [2] and in data set [4] were 17% and 1%, respectively. Also, in the data set on primary rat microglia [3] (rat), the “LPS % cell toxicity” value was 0%. For the same compound, in the data set with primary rat microglia [5], the “Fibrin % cell toxicity” value was 0%.

With `CCCCCCCCCCOc1cc2c(O)c(C(=O)OCC)cnc2cc1OCC` [Decoquinate], in data set [1], the “Quadrant (FIG. 5b)” value is recorded as “Q4”. Further, the inhibition at 10 µM in data set [2] stood at 20%; in data set [4], 7%. The “LPS % cell toxicity” value in the data set with primary rat microglia [3] (rat) stood at 1%. Besides, in the data set with primary rat microglia [5], the “Fibrin % cell toxicity” value is 1%.

`CCN(CC)C(=O)c1cccc(C)c1` [Deet, Diethyltoluamide]: the “Quadrant (FIG. 5b)” value in data set [1] is “Q4”. Besides, the LPS % inhibition in data set [2] worked out at 6%. Moreover, the “LPS % cell toxicity” value in the data set on primary rat microglia [3] is recorded as 0%. For the same compound, in data set [4], the Fibrin % inhibition is listed as −38%. In addition, the “Fibrin % cell toxicity” value in the data set on primary rat microglia [5] is given as 0%.

In the case of `CC(=O)N(O)CCCCCNC(=O)CCC(=O)N(O)CCCCCNC(=O)CCC(=O)N(O)CCCCCN` [Deferoxamine], the “Quadrant (FIG. 5b)” value in data set [1] is reported as “Q4”. For the same compound, the inhibition at 10 µM in data set [2] turned out to be 32%; in data set [4], 2%. Also, in the data set with primary rat microglia [3] (rat), the “LPS % cell toxicity” value is listed as 0%. Further, in the data set with primary rat microglia [5], the “Fibrin % cell toxicity” value was found to be 1%.

As to `C[C@H](CCC(=O)O)[C@H]1CC[C@H]2[C@@H]3C(=O)C[C@@H]4CC(=O)CC[C@]4(C)[C@H]3CC(=O)[C@]12C` [Dehydrocholic Acid], in data set [1], the “Quadrant (FIG. 5b)” value is “Q4”. Moreover, the values for the inhibition at 10 µM in data set [2] and in data set [4] were 7% and -30%, respectively. Further, the “LPS % cell toxicity” value with primary rat microglia [3] (rat) came out at 0%. In the data set on primary rat microglia [5], the “Fibrin % cell toxicity” value turned out to be 1%.

As to `CC(C)Nc1cccnc1N1CCN(C(=O)c2cc3cc(NS(C)(=O)=O)ccc3[nH]2)CC1` [Delavirdine], in data set [1], the “Quadrant (FIG. 5b)” value is given as “Q4”. The inhibition at 10 µM in data set [2] is 9%; in data set [4] it was -11%. The “LPS % cell toxicity” value in the data set on primary rat microglia [3] (rat) was found to be 1%. The “Fibrin % cell toxicity” value with primary rat microglia [5] is reported as 1%.

For `CC[N+](CC)(CC(=O)Nc1c(C)cccc1C)Cc1ccccc1` [Denatonium Benzoate], in data set [1], the “Quadrant (FIG. 5b)” value is recorded as “Q4”. Further, the inhibition at 10 µM in data set [2] was determined as 12%; in data set [4], 2%. Also, in the data set on primary rat microglia [3] (rat), the “LPS % cell toxicity” value was 0%. In addition, the “Fibrin % cell toxicity” value with primary rat microglia [5] came out at 0%.

As to `Cc1cc(N)c2ccccc2[n+]1CCCCCCCCCC[n+]1c(C)cc(N)c2ccccc21` [Dequadin], in data set [1], the “Quadrant (FIG. 5b)” value was “Q4”. The inhibition at 10 µM in data set [2] is 2%; in data set [4], -32%. In addition, the “LPS % cell toxicity” value in the data set on primary rat microglia [3] (rat) is recorded as 0%. In addition, the “Fibrin % cell toxicity” value in the data set with primary rat microglia [5] amounted to 0%.

Consider `COc1ccc(-c2cc(C(F)F)nn2-c2ccc(S(N)(=O)=O)cc2)cc1F` [Deracoxib], for which, in data set [1], the “Quadrant (FIG. 5b)” value was “Q4”. For the same compound, the inhibition at 10 µM in data set [2] is 8%; in data set [4], -34%. The “LPS % cell toxicity” value in the data set with primary rat microglia [3] (rat) stood at 0%. Further, in the data set with primary rat microglia [5], the “Fibrin % cell toxicity” value turned out to be 0%.

As to `CCN[C@@H](C)Cc1cccc(C(F)(F)F)c1` [Dexfenfluramine], in data set [1], the “Quadrant (FIG. 5b)” value was “Q4”. Further, the values for the inhibition at 10 µM in data set [2] and in data set [4] were 5% and -15%, respectively. Moreover, in the data set on primary rat microglia [3] (rat), the “LPS % cell toxicity” value was 0%. Moreover, in the data set on primary rat microglia [5], the “Fibrin % cell toxicity” value amounted to 1%.

As for `Cc1c(OCC(F)(F)F)ccnc1C[S@@+]([O-])c1nc2ccccc2[nH]1` [Dexlansoprazole], the “Quadrant (FIG. 5b)” value in data set [1] was “Q4”. The inhibition at 10 µM is -12% in data set [2] and -23% in data set [4]. The “LPS % cell toxicity” value in the data set on primary rat microglia [3] (rat) was 0%. For the same compound, the “Fibrin % cell toxicity” value with primary rat microglia [5] is recorded as 0%.

With `CC(C)(CO)[C@@H](O)C(=O)NCCCO` [Dexpanthenol], the “Quadrant (FIG. 5b)” value in data set [1] is recorded as “Q4”. Also, the results for the inhibition at 10 µM in data set [2] and in data set [4] were 11% and -1%, respectively. In addition, the “LPS % cell toxicity” value in the data set with primary rat microglia [3] (rat) turned out to be 0%. In addition, in the data set with primary rat microglia [5], the “Fibrin % cell toxicity” value came out at 0%.

Regarding `COc1ccc2c(c1)[C@]13CCCC[C@@H]1[C@H](C2)N(C)CC3` [Dextromethorphan], in data set [1], the “Quadrant (FIG. 5b)” value is given as “Q4”. In addition, the LPS % inhibition in data set [2] (10 µM) was 4% and −5%. For the same compound, in the data set on primary rat microglia [3] (rat), the “LPS % cell toxicity” value came out at 0%. The Fibrin % inhibition in data set [4] (10 µM) was −18% and −20%. For the same compound, in the data set on primary rat microglia [5], the “Fibrin % cell toxicity” value worked out at 1%.

Regarding `CCC(=O)O[C@](Cc1ccccc1)(c1ccccc1)[C@H](C)CN(C)C` [Dextropropoxyphene], the “Quadrant (FIG. 5b)” value in data set [1] is listed as “Q4”. The inhibition at 10 µM was 15% in data set [2] and -25% in data set [4]. The “LPS % cell toxicity” value in the data set with primary rat microglia [3] (rat) is listed as 0%. Besides, in the data set on primary rat microglia [5], the “Fibrin % cell toxicity” value was 1%.

In the case of `CC(=O)Oc1cccc2c1C(=O)c1c(OC(C)=O)cc(C(=O)O)cc1C2=O` [Diacerin], the “Quadrant (FIG. 5b)” value in data set [1] is on record as “Q4”. Further, the LPS % inhibition in data set [2] is on record as 10%. Further, in the data set with primary rat microglia [3], the “LPS % cell toxicity” value came out at 0%. Also, in data set [4], the Fibrin % inhibition is given as −30%. Moreover, the “Fibrin % cell toxicity” value with primary rat microglia [5] is 1%.

Regarding `CC(=O)Nc1ccc(OC(C)=O)cc1` [Diacetamate], the “Quadrant (FIG. 5b)” value in data set [1] is “Q4”. In addition, the inhibition at 10 µM in data set [2] is 21%; in data set [4], -25%. In addition, the “LPS % cell toxicity” value in the data set on primary rat microglia [3] (rat) worked out at 0%. The “Fibrin % cell toxicity” value in the data set on primary rat microglia [5] worked out at 1%.

`CCOP(=S)(OCC)Oc1cc(C)nc(C(C)C)n1` [Diazinon, Dimpylate]: the “Quadrant (FIG. 5b)” value in data set [1] is reported as “Q4”. In addition, the LPS % inhibition in data set [2] is given as −8%. The “LPS % cell toxicity” value in the data set with primary rat microglia [3] was 0%. For the same compound, in data set [4], the Fibrin % inhibition was −7%. Moreover, the “Fibrin % cell toxicity” value in the data set with primary rat microglia [5] worked out at 1%.

Take `CC1=NS(=O)(=O)c2cc(Cl)ccc2N1` [Diazoxide]: in data set [1], the “Quadrant (FIG. 5b)” value was “Q4”. In addition, the inhibition at 10 µM stood at 24% in data set [2] and 3% in data set [4]. For the same compound, in the data set with primary rat microglia [3] (rat), the “LPS % cell toxicity” value is on record as 0%. Further, the “Fibrin % cell toxicity” value in the data set with primary rat microglia [5] is 0%.

For the compound `c1ccc2c(c1)sc1ccccc12` [Dibenzothiophene], the “Quadrant (FIG. 5b)” value in data set [1] was “Q4”. The figures for the inhibition at 10 µM in data set [2] and in data set [4] were 14% and -21%, respectively. Further, the “LPS % cell toxicity” value with primary rat microglia [3] (rat) is given as 0%. For the same compound, the “Fibrin % cell toxicity” value in the data set with primary rat microglia [5] is reported as 0%.
